Assay results as given in patent publication US12607406B2, “Recombinant virus, composition comprising the same, and uses thereof” (ACADEMIA SINICA, priority 2016, dated 2026).

Columns and labels:
Assay type in all cases: biochemical
[1] = system: Influenza A virus A/WSN/33 (H1N1) neuraminidase (NA) variant 44-G, substitution at position 44, SEQ ID NO: 8
[2] = system: Influenza A virus A/WSN/33 (H1N1) neuraminidase (NA) variant 72-G, substitution at position 72, SEQ ID NO: 9
[3] = system: Influenza A virus A/WSN/33 (H1N1) neuraminidase (NA) on virus, variant 44-72-G, substitutions at positions 44 and 72, SEQ ID NO: 10
[4] = system: Influenza A virus A/WSN/33 (H1N1) neuraminidase (NA) on virus, variant 44-G, substitution at position 44, SEQ ID NO: 8
[5] = system: Influenza A virus A/WSN/33 (H1N1) neuraminidase (NA) on virus, variant 72-G, substitution at position 72, SEQ ID NO: 9
[6] = system: Influenza A virus A/WSN/33 (H1N1) neuraminidase (NA) on virus, variant 44-72-219-G, substitutions at positions 44, 72, and 219, SEQ ID NO: 11
[7] = system: Influenza A virus A/WSN/33 (H1N1) neuraminidase (NA) variant 44-72-G, substitutions at positions 44 and 72, SEQ ID NO: 10
[8] = system: Influenza A virus A/WSN/33 (H1N1) neuraminidase (NA) variant 44-72-219-G, substitutions at positions 44, 72, and 219, SEQ ID NO: 11
[9] = system: Influenza A virus A/WSN/33 (H1N1) neuraminidase (NA), all mutants (44-G, 72-G, 44-72-G, 44-72-219-G)

Compound	Kcat [1] [s⁻¹]	Km [1] [µM]	Km value increased [1]	Vmax [1] [nM/s]	Kcat [2] [s⁻¹]	Km [2] [µM]	Km value increased [2]	Vmax [2] [nM/s]	Km [3] [µM]	Km [4] [µM]	Km [5] [µM]	Km [6] [µM]	Kcat [7] [s⁻¹]	Km [7] [µM]	Vmax [7] [nM/s]	Kcat [8] [s⁻¹]	Km [8] [µM]	Vmax [8] [nM/s]	Km values of all mutants [9]
CC(=O)N[C@H]1[C@H]([C@H](O)[C@H](O)CO)O[C@@](O[C@H]2[C@@H](O)[C@@H](CO)O[C@@H](O[C@H]3[C@H](O)[C@@H](NC(C)=O)C(O)O[C@@H]3CO)[C@@H]2O)(C(=O)O)C[C@@H]1O (stereo partly shown) [3SLN, 3′-sialyl-N-acetyllactosamine]	389.8	295	more than two-fold	4.09	364.4	289	more than two-fold	3.89	285	274	268	281	136.4	296	1.46	139.1	299	1.48	
CC(=O)N[C@H]1[C@H]([C@H](O)[C@H](O)CO)O[C@@](Oc2ccc3c(C)cc(=O)oc3c2)(C(=O)O)C[C@@H]1O [4-Muα-Neu5Ac, 2-(4-methylumbelliferyl)-α-D-N-acetylneuraminic acid]	468.5	595		4.95	426.8	591		4.45	429	508	485	415	100.3	588	1.15	105.8	597	1.2	similar
CC(=O)N[C@H]1[C@H]([C@H](O)[C@H](O)CO)O[C@@](OC[C@H]2O[C@@H](O[C@H]3[C@H](O)[C@@H](NC(C)=O)C(O)O[C@@H]3CO)[C@H](O)[C@@H](O)[C@H]2O)(C(=O)O)C[C@@H]1O (stereo partly shown) [6SLN, 6′-sialyl-N-acetyllactosamine]	90.6	684		0.92	83.6	688		0.85	521	525	540	515	19.8	679	0.24	20.7	675	0.21	similar
